Reference: patent US20040022788A1, “Compositions and methods for promoting or inhibiting angiogenesis” (priority 1998, published 2004)
“Also recorded” adds a separate entry of the source. Values belong to the compound of their own block, whether it stands above or below them.

How the values were obtained:
[1] = molecular target: T1, purified bovine F1 ATP synthase (Bos taurus, UniProt P00829+P19483); test: F1 activity assay (ATPase, coupled NADH oxidation at 340 nm); type: biochemical; settings: NaN3 2%
T1 construct: from tissue; host or cells: bovine heart mitochondria
Description: FIG. 12 is a bar graph showing the inhibition of purified F1 ATP synthase by angiostatin. Purified F1 ATP synthase activity was measured spectrophotometrically at λ=340 nm by coupling the production of ADP to the oxidation of NADH via the pyruvate kinase and lactate dehydrogenase reaction in which a decrease in the absorbance at λ=340 nm indicates active protein (dark six membered rings). […] Control antibodies had no effect on activity (light circles and squares). Representative data shown, n=3.
Purification of Bovine Heart F1 ATP Synthase and F1 Activity Assay. Fresh bovine heart mitochondria were obtained as previously described (23) and sonicated to yield sub-mitochondrial particles (24). The F1 portion was separated from membrane-bound FO by chloroform extraction. The aqueous layer was centrifuged at 105,000×g to remove particulate matter before purifying over an S300 gel filtration column. […] ATPase activity was measured spectrophotometrically by monitoring at λ=340 nm by coupling the production of ADP to the oxidation of NADH via pyruvate kinase and lactate dehydrogenase reactions as described in Zheng,& Ramirez, Biochem Biophys Res Commun 261(25):499-503 (1999).

[2] = test system: HUVEC; test: Direct binding of 125I-labeled plasminogen or angiostatin to endothelial cells, Scatchard analysis; set-up: species or system human; settings: 125I-labeled ligand, 1 h at 4° C., read-out: apparent dissociation constant (Kd)
Description: FIGS. 1A and 1B. Direct binding assay and Scatchard analysis of plasminogen and angiostatin with endothelial cells. HUVEC were plated at a density of 10,000 cells/well and incubated with increasing concentrations of ^125I-labeled-plasminogen or angiostatin. FIG. 1A. ^125I-labeled plasminogen binding was concentration-dependent and saturable with an apparent dissociation constant ([…]) of 158 nM and 870,000 sites/cell. FIG. 1B. […] Error bars represent standard deviation.
(§1) Binding Assays. Ligands were radioiodinated by using Iodobeads (Pierce), repurified on L-lysine-Sepharose, eluted with 100 mM ε-aminocaproic acid, and dialyzed in PBS, pH 7.0 before use in binding assays. HUVEC were plated at a density of 5,000 or 10,000 cells/well and incubated with increasing concentrations of ^125I-labeled ligand in media containing 1% BSA for 1 h at 4° C. in 96-well plates. Wells were washed, and remaining bound radioactivity was quantified by using an LKB 1272 γ-radiation counter. Nonspecific binding was measured in the presence of excess unlabeled ligand.

[3] = test system: plasminogen binding sites on HUVEC; test: Competition binding assay, 125I-labeled plasminogen on HUVEC; set-up: species or system human; settings: 1.0 μM 125I-labeled plasminogen; 25-fold molar excess of unlabeled plasminogen
Description: FIG. 2. Competition binding assay between plasminogen and angiostatin. HUVEC were plated at a density of 10,000 cells/well and incubated with 1.0 μM ^125I-labeled plasminogen in the presence of 100-fold molar excess of unlabeled angiostatin for 1 h at 4° C. Cells were washed and the remaining radioactivity was quantified by γ-counting.
as §1

[4] = test system: angiostatin binding site on HUVEC; test: Competition binding assay, 125I-labeled angiostatin on HUVEC; set-up: species or system human
Description: FIG. 6. Competition binding assay between angiostatin and the antibody against the alpha subunit of ATP synthase from E. coli. […] Cells were washed and remaining bound radioactivity was quantified by γ-counting. Non-specific binding was measured in the presence of excess unlabeled angiostatin and was subtracted from total binding. […] Competition studies were also performed simultaneously using rabbit pre-immune serum to account for non-specific inhibition. Error bars represent standard deviation. A 1 tailed homoscedastic t test was used for statistical analysis; p<0.10.
Binding Assays. Ligands were radioiodinated by using Iodobeads (Pierce), repurified on L-lysine-Sepharose, eluted with 100 mM ε-aminocaproic acid, and dialyzed in PBS, pH 7.0 before use in binding assays. […] Nonspecific binding was measured in the presence of excess unlabeled ligand.

[5] = molecular target: T2, recombinant alpha subunit of human ATP synthase (Homo sapiens, UniProt P25705); test: Ligand blot binding to the recombinant alpha subunit of ATP synthase
T2 construct: His tag; made in house; host or cells: E. coli BL21DE3
Description: FIGS. 7A-7E. Angiostatin binding to the recombinant alpha subunit of human ATP synthase. The alpha subunit of human ATP synthase was cloned and expressed in E. coli and purified using Qiagen's nickel-Sepharose protein purification system before dialyzing in phosphate buffered saline (PBS), pH 7.0. Recombinant protein was electrophoresed on 5-15% SDS-PAGE, electroblotted onto Immobilon™ membrane and incubated 18 h in 10 mM Tris-HCl, 0.15M NaCl, 0.05% NP40, pH 7.5 (TSN) containing ^125I-angiostatin. For competition studies, unlabeled ligand was added 4 h prior to radiolabeled ligand. Blots were washed in TSN buffer containing 0.05% Tween80 and bound radioactivity was quantified on a Molecular Dynamics PhosphorImager™.
Purification of the alpha-Subunit of ATP Synthase. Competent E. coli BL21DE3 were transformed with the pET24a(+) vector containing the alpha subunit, plated on 2× Bacto-yeast tryptone (YT) agarose, and grown overnight at 37° C. Twenty milliliters of 2× YT containing […] kanamycin was inoculated with one colony and grown overnight at 37° C. (200 rpm). A 1-liter culture (2× YT, […] kanamycin) was inoculated with 20 ml of the noninduced overnight culture and grown at 37° C. to an OD of 0.6 at a wavelength of 600 nm. Isopropyl […] was added to a final concentration of 1 mM and grown for an additional 3 h. Cells were harvested by centrifugation at 8,000 rpm for 10 min and stored overnight at −20° C. Lysates were prepared under denaturing conditions and batch-purified by using Qiagen Ni-NTA agarose. Resulting protein was dialyzed against PBS, pH 7.0 for use in all experiments.

[6] = test system: HUVEC; test: HUVEC cell proliferation assay (CyQUANT); type: cell-based, human
Description: Cell Proliferation Assay. HUVEC were plated at a density of 5000 cells/well in media depleted of fetal calf serum (FCS) overnight to allow the cells to become quiescent. Fresh media containing 5% FCS, 10 ng/ml basic fibroblast growth factor (bFGF) and 3 ng/ml vascular endothelial growth factor (VEGF) were added to the wells along with angiostatin (1.0 μM), antibody directed against the recombinant human alpha-subunit of ATP synthase (1:10 dil), antibody directed against the recombinant human beta-subunit of ATP synthase (1:10 dil), pre-immune serum (1:10 dil) or cycloheximide ([…]). Cell density was measured after 24 hrs using CyQUANT Cell Proliferation Assay Kit (Molecular Probes) in a fluorometric plate reader (Molecular Devices). The absorbance values used to calculate the percent proliferation of the cells ranged from 1.24 or 1.00 for treated and 2.57 for untreated.

[7] = molecular target: T3, ATP synthase on the surface of HUVEC (Homo sapiens, UniProt P05496+P06576+P25705); test: Cell-surface ATP generation by bioluminescent luciferase assay; type: cell-based; settings: oligomycin (0.1 mg/mL per method), 50 μM ADP
T3 construct: endogenous in cells; host or cells: HUVEC (primary human umbilical vein endothelial cells)
Description: Cell-surface ATP Assay. […] Cells were treated with (1 μM) angiostatin or (0.1 mg/mL) oligomycin for 1 hr at 37° C. All cells were then incubated with 0.1 Ci ^32P and 0.1 Ci ([…]) [2,8-^3H]-ADP (NEN Life Sciences) for 1 min. Supernatants were removed and centrifuged before assaying for ATP production by thin layer chromatography (TLC) or by firefly luciferase assay. ATP Generation by Bioluminescent Luciferase Assay. […] Louis, Mo.). In this firefly luciferin-luciferase reaction, only ATP is readily detected since the enzymatic reaction of firefly luciferase to oxidize luciferin is specific for ATP relative to all other nucleotides. Samples were injected with the ATP assay mixture and recordings were made in a LuminoskanRS (LabSystems, Franklin, Mass.) over a 10 s period. The response in a given sample or standard was quantified as area under the peak of the response and averaged for duplicate determinations. Data are expressed as picomoles of ATP produced per cell based on standards determined under the same conditions with each experiment. Angiostatin was prepared as described in Sottrup-Jensen, […]., Petersen, T. E. & Magnusson, S. (1978) Progress in Chemical Fibrinolysis and Thrombolysis (Raven Press, New York).

Compound: [N-]=[N+]=[N-].[Na+] [NaN3, reference compound]
- inhibition of purified F1 ATPase activity [1]: completely inhibited

- inhibition of 125I-labeled plasminogen binding [3]: about 80%
- inhibition of 125I-labeled angiostatin binding to recombinant alpha subunit ([5]; 0.5 nM 125I-labeled angiostatin, 2500-fold molar excess of unlabeled plasminogen): not inhibited
- binding of 125I-labeled ligand to recombinant alpha subunit ([5]; ligand blot): did not bind
Compound: plasminogen: purified from human plasma by affinity chromatography, 92 kDa
- Kd [2]: 158 nM
- inhibition of 125I-labeled angiostatin binding ([4]; excess unlabeled plasminogen (2-fold molar excess in FIG. 2 legend)): little or no effect; also recorded: no inhibition

Compound: C[C@@H]1C[C@@H]([C@H](O)CC2CC(=O)NC(=O)C2)C(=O)[C@@H](C)C1 [Cycloheximide]
- inhibition at 10 µg/mL ([6]; Homo sapiens, HUVEC, 24 h, read-out: Percent Inhibition (+/− S.E.M.) of HUVEC proliferation): 100%
- cellular morphology of treated cells ([6]; compared with untreated cells, data not shown): obvious rounded morphology

Compound: CC[C@H]1/C=C/C=C/C[C@@H](C)[C@H](O)[C@@](C)(O)C(=O)[C@@H](C)[C@H](O)[C@@H](C)C(=O)[C@@H](C)[C@H](O)[C@@H](C)/C=C/C(=O)O[C@@H]2[C@H](C)[C@H](CC1)O[C@]1(CC[C@H](C)[C@H](C[C@@H](C)O)O1)[C@H]2C [Oligomycin, reference compound]
- inhibition at 100 µg/mL ([7]; HUVEC, read-out: Percent Inhibition (+/− S.E.M.) of ATP generation): 84%
- Percent Inhibition (+/− S.E.M.) of ATP generation [7]: 83.5 +/− 4.5%

- inhibition of 125I-labeled angiostatin binding ([4]; 100 mM ε-aminocaproic acid, data not shown): only slightly inhibited
Compound: NCCCCCC(=O)O [ε-aminocaproic acid, reference compound]
